Consider six compounds from US10662138B2, “Herbicidal propynyl-phenyl compounds” (Syngenta Participations AG, priority 2014, dated 2020).

Common to all, as to type: in vivo
The subject of experiment [1] is Zea mays (corn, maize, e.g. volunteer corn). The experiment can be described thus: Glasshouse assay for herbicidal activity, post-emergence, ZEAMX. As to conditions: visual 13 days after application, 100%=total damage; for pest or weed control at 30 g/ha / pest or weed control at 250 g/ha: Zea mays, 312 h, read-out: Percentage phytotoxicity ZEAMX. The protocol:
(§1) Seeds of a variety of test plant species were sown in standard soil ** in pots. After cultivation for one day (pre-emergence) or after 8 days cultivation (post-emergence) under controlled conditions in a glasshouse (at 24/16° C., day/night; 14 hours light; 65% humidity), the plants were sprayed with an aqueous spray solution derived from the formulation of the technical active ingredient (the test herbicide) in acetone/water (50:50) solution containing 0.5% Tween 20 (polyoxyethylene sorbitan monolaurate, CAS Reg. No. 9005-64-5). The test plants were then grown on under controlled conditions in a glasshouse (at 24/16° C., day/night; 14 hours light; 65% humidity) and watered twice daily. 13 Days after application of the test herbicide, for pre- and post-emergence, the test was evaluated visually for percentage phytotoxicity to each plant (where 100%=total damage to plant; 0%=no damage to plant). Generally, each test herbicide is only tested on 1 plant per plant species for each application rate tested and for each application timing. The “standard soil” in Biological Example 1 is usually a “sand” or “sandy loam” type of soil. Biological Example 1—Post-Emergence Application—Herbicidal Activity Results (Percentage Phytotoxicity) Dicotyledonous weeds: ABUTH=Abutilon theophrasti; AMARE=Amaranthus retroflexus. Grassy monocotyledonous weeds: SETFA=Setaria faberi; ALOMY=Alopecurus myosuroides; ECHCG=Echinochloa crus-galli; ZEAMX=Zea mays (corn, maize, e.g. volunteer corn).

Experiment [2] deals with Abutilon theophrasti. Kind of experiment: Glasshouse assay for herbicidal activity, post-emergence, ABUTH. As to conditions: visual 13 days after application, 100%=total damage; for pest or weed control at 30 g/ha / pest or weed control at 250 g/ha: Abutilon theophrasti, 312 h, read-out: Percentage phytotoxicity ABUTH. The method, then: as §1
Experiment [3] concerns Amaranthus retroflexus. The experiment can be described thus: Glasshouse assay for herbicidal activity, post-emergence, AMARE. As to conditions: visual 13 days after application, 100%=total damage; for pest or weed control at 30 g/ha / pest or weed control at 250 g/ha: Amaranthus retroflexus, 312 h, read-out: Percentage phytotoxicity AMARE. The method, then: as §1
Experiment [4] relates to Alopecurus myosuroides. Kind of experiment: Glasshouse assay for herbicidal activity, post-emergence, ALOMY. The following applies: visual 13 days after application, 100%=total damage; for pest or weed control at 30 g/ha / pest or weed control at 250 g/ha: Alopecurus myosuroides, 312 h, read-out: Percentage phytotoxicity ALOMY. The method, then: as §1
Experiment [5] relates to Setaria faberi. The experiment can be described thus: Glasshouse assay for herbicidal activity, post-emergence, SETFA. The following applies: visual 13 days after application, 100%=total damage; for pest or weed control at 30 g/ha / pest or weed control at 250 g/ha: Setaria faberi, 312 h, read-out: Percentage phytotoxicity SETFA. The method, then: as §1
For experiment [6], the system named is Echinochloa crus-galli. The experiment can be described thus: Glasshouse assay for herbicidal activity, post-emergence, ECHCG. The following applies: visual 13 days after application, 100%=total damage; for pest or weed control at 30 g/ha / pest or weed control at 250 g/ha: Echinochloa crus-galli, 312 h, read-out: Percentage phytotoxicity ECHCG. The method, then:
as §1

“4-(2,6-Dimethoxy-4-prop-1-ynyl-phenyl)-2,2,6,6-tetramethyl-tetrahydropyran-3,5-dione [Compound A2]”: in experiment [1] (250 g/ha), the “Percentage phytotoxicity ZEAMX” value is 70%. Besides, the “Percentage phytotoxicity ABUTH” value in experiment [2] (250 g/ha) is 10%. Further, the “Percentage phytotoxicity AMARE” value in experiment [3] (250 g/ha) is on record as 0%. Further, in experiment [4] (250 g/ha), the “Percentage phytotoxicity ALOMY” value turned out to be 90%. Also, the “Percentage phytotoxicity SETFA” value in experiment [5] (250 g/ha) is listed as 90%. Further, the “Percentage phytotoxicity ECHCG” value in experiment [6] (250 g/ha) was 70%.

In the case of `CC#Cc1ccc(C2C(=O)C3CCC(C3)C2=O)c(OC)c1` (centres unmarked) [Compound A1, 3-(2-methoxy-4-prop-1-ynyl-phenyl)bicyclo[3.2.1]octane-2,4-dione], the pest or weed control at 30 g/ha worked out at 100% in experiment [1]; 10% in experiment [2]; 30% in experiment [3]; 100% in experiment [4]; 90% in experiment [5]; 100% in experiment [6]. Further, the pest or weed control at 250 g/ha in experiment [1] (250 g/ha) is 100%; in experiment [2] (250 g/ha), 20%; in experiment [3] (250 g/ha), 50%; in experiment [4] (250 g/ha), 100%; in experiment [5] (250 g/ha), 100%; in experiment [6] (250 g/ha), 100%.

Regarding `CC#Cc1cc(OC)c(C2C(=O)C3CCC(C3)C2=O)c(C(F)(F)F)c1` (centres unmarked) [Compound A3, 3-[2-methoxy-4-prop-1-ynyl-6-(trifluoromethyl)phenyl]bicyclo[3.2.1]octane-2,4-dione], the pest or weed control at 30 g/ha in experiment [1] was found to be 90%; in experiment [2], 0%; in experiment [3], 0%; in experiment [4] it was 40%; in experiment [5] it was 70%; in experiment [6], 70%. In addition, the pest or weed control at 250 g/ha in experiment [1] (250 g/ha) is 90%; in experiment [2] (250 g/ha), 0%; in experiment [3] (250 g/ha), 0%; in experiment [4] (250 g/ha) it was 70%; in experiment [5] (250 g/ha) it was 90%; in experiment [6] (250 g/ha) it was 100%.

For the compound `CC#Cc1ccc(C2C(=O)C3CCC(C3)C2=O)c(OCC(F)(F)F)c1` (centres unmarked) [Compound A4], the pest or weed control at 30 g/ha in experiment [1] turned out to be 30%; in experiment [2] it was 0%; in experiment [3] it was 0%; in experiment [4], 10%; in experiment [5] it was 40%; in experiment [6], 20%. Besides, the pest or weed control at 250 g/ha turned out to be 60% in experiment [1] (250 g/ha); 0% in experiment [2] (250 g/ha); 0% in experiment [3] (250 g/ha); 30% in experiment [4] (250 g/ha); 70% in experiment [5] (250 g/ha); 40% in experiment [6] (250 g/ha).

On to `CC#Cc1ccc(C2C(=O)C3CCC(C3)C2=O)c(OCCC)c1` (centres unmarked) [Compound A6], for which the pest or weed control at 30 g/ha in experiment [1] was determined as 40%; in experiment [2] it was 0%; in experiment [3], 0%; in experiment [5], 10%; in experiment [6] it was 40%. The pest or weed control at 250 g/ha is 80% in experiment [1] (250 g/ha); 0% in experiment [2] (250 g/ha); 0% in experiment [3] (250 g/ha); 50% in experiment [5] (250 g/ha); 70% in experiment [6] (250 g/ha).

Consider `CC#Cc1ccc(C2C(=O)C3CCC(C3)C2=O)c(OCC)c1` (centres unmarked) [Compound A14], for which the pest or weed control at 30 g/ha was 70% in experiment [1]; 0% in experiment [2]; 0% in experiment [3]; 50% in experiment [5]; 70% in experiment [6]. The pest or weed control at 250 g/ha in experiment [1] (250 g/ha) is 90%; in experiment [2] (250 g/ha), 0%; in experiment [3] (250 g/ha), 0%; in experiment [5] (250 g/ha), 90%; in experiment [6] (250 g/ha), 100%.
